Reference: patent US20260151398A1, “COMPOUNDS FOR REDUCING CHOLESTEROL AND TREATING LIVER AND KIDNEY DISEASE” (McMaster University, priority 2021, published 2026)
“Also recorded” adds a separate entry of the source.

Columns and labels:
[1] = system: PCSK9; assay: PCSK9 expression in hepatocytes (immunoblot, real-time PCR); type: cell-based, human, mouse
Description: (§1) HuH7 and HepG2 cells were routinely grown in complete Dulbecco's Modified Eagle's Medium (Gibco, Thermofisher Scientific) supplemented with 10% fetal bovine serum (Sigma-Aldrich) and 100 U/ml of penicillin and streptomycin (Sigma-Aldrich). […] All cell treatments were carried out for 24 h unless otherwise stated. Cells were transfected with a cocktail consisting of plasmid DNA (1 μg), X-tremeGENE HP (3 μl; Thermofisher Scientific) and opti-MEM (100 μl; Thermofischer Scientific) per 1 ml complete medium containing plated cells. Human PCSK9 was overexpressed using the bicistronic pIRES-EGFP plasmid; calnexin using the mPA-GFP-N1 plasmid. To block the expression of GRP78 and CD36, siGENOME smartpool siRNA was purchased from GE Dharmacon (M-008198-02 and L-010206-00-0005 respectively) and transfected using lipofectamine RNAiMAX as per manufacturer's protocol.
Cells were washed in phosphate-buffered saline (PBS), lysed in 4× SDS-PAGE lysis buffer and separated on 7-10% polyacrylamide gels in denaturing conditions. Gels were transferred to nitrocellulose membranes using the BioRad mini trans-blot system, blocked in 5% skim milk in tris-buffered saline (TBS) for 1 h and incubated in primary antibody overnight for 16 h at 4° C. Membranes were then exposed to horse radish peroxidase conjugated secondary antibodies and visualized using EZ-ECL chemiluminescent reagent (Froggabio). Band intensities were quantified using ImageJ software ([…]) against membranes reprobed for housekeeping proteins.
RNA purification/isolation was performed using RNeasy mini kits (Qiagen) and normalized to 2 μg RNA using a NanoDrop® spectrophotometer. Samples were then reverse transcribed into cDNA using Superscript Vilo cDNA Synthesis kit (Thermofisher Scientific). Real-time PCR was executed with Fast SYBR Green (Thermo Fisher Scientific) using the ΔΔct method on the ViiA7 real-time PCR platform (Thermofisher Scientific).
Cultured immortalized hepatocytes known to express and secrete PCSK9 (Lebeau, P., et al., 2017), including HuH7 and HepG2 cells, as well as primary mouse- and human-hepatocytes (PMH and PHH, respectively), were treated with CF for 24 h and assessed for PCSK9 expression via immunoblots and real-time PCR (FIG. 1 A to D). […] Given that sterol deprivation represents another well-established promoter of SREBP2 activation (Lebeau, P., et al., 2017), cells were also treated with CF in the presence and absence of U18666A (U18) that depletes intracellular sterols. […] Next, HepG2 cells were treated with an increasing dose of CF.

[2] = system: PCSK9; assay: PCSK9 secretion from cultured and primary hepatocytes (ELISA of medium); type: cell-based, human, mouse; details: for PCSK9 secretion with Ca2+-modulating agents: ELISA of medium
Description: as §1
Secreted PCSK9 levels were assessed directly in cell culture medium of cells grown in FBS-free medium for 24 h or in the serum isolated from either mice or human subjects. Mouse PCSK9 was measured using the Quantikinine® ELISA kit (#MCP900, R&D Systems) and human PCSK9 using the PCSK9 Quantikinine® ELISA kit (#DCP900, R&D Systems). Serum ApoB levels were also quantified using ELISAs (#DAPB00, R&D Systems). Serum samples were diluted as per manufacturer's instructions.
All animal studies were carried out in 8 h-fasted male wild-type, Pcsk9^−/− or Ampkβ1^−/− mice on the C57BL/6J background. CF (25-100 mg/kg-8 h) and CDN (50 mg/kg) treatments were administered via intraperitoneal injection unless specified otherwise. Primary mouse hepatocytes were isolated using a two-step process with EGTA ([…] in HEPES buffer, Sigma Aldrich) and collagenase (0.05% in HEPES buffer, Sigma Aldrich) in 12-week-old male mice on the C57BL/6J background. Cells were then washed, centrifuged, and plated following isolation in cell strainers. Hepatosure® 100-donor pooled primary human hepatocytes were purchased from Xenotech. Primary hepatocytes were regularly grown in William's E medium (Gibco, Thermo Fisher Scientific) containing 10% fetal bovine serum, 100 IU/ml penicillin, and 100 µg/ml streptomycin.

[3] = system: GRP78 and SREBP2; assay: Co-immunoprecipitation of GRP78 with SREBP2 in HuH7 cells; type: cell-based, human; details: TG 100 nM, CDN 100 μM, CF 200 μM, 24 h
Description: Cells were grown in 10 cm dishes were resuspended in ice cold non-denaturing immunoprecipitation buffer containing 20 mM tris HCL, 137 mM NaCl, 1% NP-40, 2 mM EDTA and protease inhibitor (Roche). Total cell protein was normalized using a protein assay (BioRad) and 1 mg of protein from each sample was incubated with 2 μg of capture antibody targeted against GRP78 (Santa Cruz Biotechnology; SC-1050) and rotated on a platform for 24 h at 4° C. Following incubation, samples were exposed to 100 μl of Protein G magnetic Surebeads® (BioRad) for an additional 2 h on a rotating platform at 4° C. Beads conjugated to the anti-GRP78 antibody were subsequently isolated and the remaining sample was collected and labelled “input” for use as controls. The magnetic beads underwent 4 consecutive washes using the non-denaturing IP buffer and resuspended and boiled in 100 μl of 4× SDS-PAGE sample buffer.
To determine whether increasing ER Ca^2+ levels enhance GRP78 peptide binding capacity, HuH7 cells were treated with either CDN, which increases ER Ca^2+ levels, or TG which causes ER Ca^2+ depletion. Following treatment, the interaction taking place between GRP78 and SREBP2 was examined via immunoprecipitation of the former. By affecting ER Ca^2+ levels however, these agents also directly impact the expression and abundance of GRP78 compared to untreated cells. Therefore, assessment of the relative binding capacity GRP78 for SREBP2 between treatments required normalization of immunoprecipitations to equivalent GRP78 protein levels (FIG. 7 A).

Structure (SMILES): Cc1ccc2cccc(NC(=O)c3ccc(OC(C)C)cc3)c2n1 [CDN]
- SREBP2 and PCSK9 mRNA transcript level ([1]; HuH7, ryanodine 10 μM, CDN 100 μM, 2 APB 50 μM, presence or absence of TG, 24 h): blocked SREBP2 and PCSK9 at the mRNA transcript level
- PCSK9 secretion with Ca2+-modulating agents [2]: blocked PCSK9 secretion
- interaction of GRP78 with pre-mature SREBP2 [3]: enhanced the ability of GRP78 to interact with and sequester pre-mature SREBP2

Structure (SMILES): C/C=C(/C)C(=O)O[C@H]1C(C)=C2[C@H]([C@@H]1OC(=O)CCCCCCC)[C@@](C)(OC(C)=O)C[C@H](OC(=O)CCC)[C@@]1(O)[C@H]2OC(=O)[C@@]1(C)O [TG, thapsigargin]
- PCSK9 and SREBP2 expression on ER Ca2+ depletion ([1]; HuH7, TG 100 nM, CPA 10 μM): increased PCSK9 and SREBP2 expression
- PCSK9 secretion with Ca2+-modulating agents [2]: blocked PCSK9 secretion
- interaction of GRP78 with pre-mature SREBP2 [3]: lost its intrinsic ability to interact with pre-mature SREBP2

Structure (SMILES): Cn1c(=O)c2c(ncn2C)n(C)c1=O [caffeine, 1,3,7-Trimethylxanthine]
- TG-induced PCSK9 expression ([1]; CF 200 μM with thapsigargin 100 nM, 24 h): attenuated PCSK9 expression
- PCSK9 mRNA and secreted protein in presence of ActD ([1]; HepG2 pre-treated with actinomycin D): failure of CF to block PCSK9 mRNA
- PCSK9 and SREBP2 mRNA and secreted PCSK9 in presence of siGRP78 ([1]; HepG2 transfected with siGRP78): failed to attenuate PCSK9 and SREBP2 mRNA expression or secreted PCSK9 levels
- PCSK9 protein and mRNA transcript levels ([1]; HuH7, HepG2, PMH, PHH, 24 h, listed as CF): reduced protein and mRNA transcript levels of PCSK9; also recorded: blocks PCSK9 expression
- U18-induced PCSK9 expression ([1]; HuH7, CF 200 μM with U18 10 μM, 24 h): attenuated U18-induced PCSK9 expression
- PCSK9 secretion ([2]; HuH7, HepG2, PMH, PHH, listed as CF): blocked the secretion of PCSK9; also recorded: blocks PCSK9 expression and secretion
- interaction of GRP78 with pre-mature SREBP2 [3]: increases the SREBP2-binding capacity of GRP78
